{
  "source": "patent US10178875B2",
  "about": "“Methods of modifying or imparting taste using organic compounds” (Givaudan, S.A., priority 2013, dated 2019)",
  "type_in_all_cases": "in vivo",
  "key": {"panel of trained tasters": {"system": "panel of trained tasters", "test": "Taste evaluation in water", "method": "A one percent cut of each compound of Examples 1-13 was prepared first. The hydrochloride salts were cut directly into water, while the free base examples were cut into ethanol. Next, 100 ml of a 1 ppm, 10 ppm and 20 ppm solution were prepared. The 1 ppm standards were prepared by addition of 0.0126 ml (cut in ethanol) or 0.01 ml (cut in water) to an amber bottle followed by dilution to 100 g total sample weight using water. The 10 and 20 ppm solutions were prepared similarly, but using 0.126 ml ethanol/0.1 ml water or 0.252 ml ethanol/0.2 ml water of the 1% cuts respectively. Next, the samples were evaluated by a panel of trained tasters."}, "bench-top tasting panel [1]": {"system": "bench-top tasting panel", "test": "Umami evaluation in noodle seasoning broth", "conditions": "Example 1 0.0001% by weight; for umami strength ranking: MSG 0.1%, 11 panelists", "method": "(§1) Umami evaluations were done in dry noodle seasoning, chicken broth, retorted chicken broth, cheese sauce and salted potato chip applications. Each application was prepared using MSG, the experimental umami tastant and a blank which contained neither MSG nor the experimental umami tastant. Next, using a bench-top tasting panel (consisting of 7 to 14 panelists), panelists were asked to record the sensory attribute differences between the control (blank), the MSG application and the application containing the experimental umami tastant. These sensory attributes include umami, saltiness, bitterness, off-notes, mouth feel attribute, lingering attribute and flavor profile differences. [table] Turmeric was plated on salt and palm fat and blended well. Next, the remaining ingredients were added and mixed until well blended. A concentration of 1.5% of the resulting mixture in hot water generated the noodle seasoning broth. The following three samples were tasted and compared. [table]"}, "bench-top tasting panel [2]": {"system": "bench-top tasting panel", "test": "Umami evaluation in chicken broth", "conditions": "Example 1 0.0002% by weight; for umami strength ranking: MSG 0.1%, 11 panelists", "method": "as §1, with “[table]” left out, “chicken” for “palm”, “2.5%” for “1.5%”, “water (82° C. (180° F.))” for “water”, “broth.” for “broth. The following three samples were tasted and compared. [table]”"}, "bench-top tasting panel [3]": {"system": "bench-top tasting panel", "test": "Umami evaluation in retorted chicken broth (Example 17)", "conditions": "Example 1 0.0002% by weight", "method": "Umami evaluations were done in dry noodle seasoning, chicken broth, retorted chicken broth, cheese sauce and salted potato chip applications. Each application was prepared using MSG, the experimental umami tastant and a blank which contained neither MSG nor the experimental umami tastant. Next, using a bench-top tasting panel (consisting of 7 to 14 panelists), panelists were asked to record the sensory attribute differences between the control (blank), the MSG application and the application containing the experimental umami tastant. These sensory attributes include umami, saltiness, bitterness, off-notes, mouth feel attribute, lingering attribute and flavor profile differences. The chicken broth generated in Example 16 was transferred to a can and sealed. Prior to sealing one batch was treated with the compound of Example 1 (0.0002% by weight) and the other batch was canned without the ingredient generating a blank control sample. After sealing the cans, they were heated to 121° C. (250° F.) (under pressure) for 25 minutes, cooled to room temperature and then stored in the refrigerator for two weeks. Prior to tasting, the cans were opened and reheated to 65.5° C. (150° F.)."}, "bench-top tasting panel [4]": {"system": "bench-top tasting panel", "test": "Umami evaluation in cheese sauce", "conditions": "Example 1 0.00025% by weight; for umami strength ranking: MSG 0.1%, 14 panelists", "method": "as §1, with “differences. […] Annatto” for “differences. [table] Turmeric”, “on a mixture of salt, citric acid” for “on salt”, “and lactic acid” for “and palm fat”, “blended.” for “blended. A concentration of 1.5% of the resulting mixture in hot water generated the noodle seasoning broth. The following three samples were tasted and compared. [table]”"}, "bench-top tasting panel [5]": {"system": "bench-top tasting panel", "test": "Umami evaluation on salted potato chips (Example 19)", "conditions": "1% salted potato chips; for umami strength ranking: 14 panelists", "method": "as §1, with “differences.” for “differences. [table] Turmeric was plated on salt and palm fat and blended well. Next, the remaining ingredients were added and mixed until well blended. A concentration of 1.5% of the resulting mixture in hot water generated the noodle seasoning broth. The following three samples were tasted and compared. [table]”\nOne percent salt was added to a standard unsalted potato chip."}, "bench-top tasting panel [6]": {"system": "bench-top tasting panel", "test": "Umami evaluation in retorted chicken broth (Example 20)", "conditions": "MSG 0.20%, Example 3 4 ppm, Example 13 3 ppm, Example 10 4 ppm, Example 9 3 ppm, 9 panelists", "method": "as §1, with “differences.” for “differences. [table] Turmeric was plated on salt and palm fat and blended well. Next, the remaining ingredients were added and mixed until well blended. A concentration of 1.5% of the resulting mixture in hot water generated the noodle seasoning broth. The following three samples were tasted and compared. [table]”\nThe procedure for the preparation of the retorted chicken broth is the same as in example 16. Compounds from Examples 3, 9, 10 and 13 were spiked individually into the chicken broth generating six samples, as described below."}, "bench-top tasting panel [7]": {"system": "bench-top tasting panel", "test": "Bain marie (hot water bath) test with chicken broth", "conditions": "hot water bath 150° F. for 4 hours, MSG 0.20%, Example 3 3 ppm, Example 13 2 ppm (table), Example 10 3 ppm, Example 9 2 ppm, 7 panelists", "method": "as §1, with “differences.” for “differences. [table] Turmeric was plated on salt and palm fat and blended well. Next, the remaining ingredients were added and mixed until well blended. A concentration of 1.5% of the resulting mixture in hot water generated the noodle seasoning broth. The following three samples were tasted and compared. [table]”\nChicken broth was prepared as previously described in example 15. Compounds from Examples 3, 9, 10 and 13 were added to the chicken broth in the concentrations described below and placed in a hot water bath (150° F.) for 4 hours prior to taste evaluation."}, "bench-top tasting panel [8]": {"system": "bench-top tasting panel", "test": "Umami evaluation on salted potato chips (Example 22)", "conditions": "1% salted potato chips; MSG 0.2%, Example 3 10 ppm, Example 13 10 ppm, Example 10 6 ppm, Example 9 10 ppm; 9 panelists", "method": "as §1, with “differences.” for “differences. [table] Turmeric was plated on salt and palm fat and blended well. Next, the remaining ingredients were added and mixed until well blended. A concentration of 1.5% of the resulting mixture in hot water generated the noodle seasoning broth. The following three samples were tasted and compared. [table]”\nThe potato chips were prepared as previously described in example 19 and spiked with compounds from Examples 3, 9, 10 and 13 as described below."}, "[9]": {"conditions": "MSG 0.2%, Example 1 3 ppm (0.0003% by weight)"}},
  "data": [
    {"smiles": "c1ccc(SCCc2ccccn2)cc1", "note": "[Example 1, 2-(2-(PHENYLTHIO)ETHYL)PYRIDINE]", "values": [
      {"measurement": "aroma", "setting": "panel of trained tasters; 1 ppm in water", "value": "green"},
      {"measurement": "taste", "setting": "panel of trained tasters; 1 ppm in water", "value": "weak to moderate umami"},
      {"measurement": "aroma", "setting": "panel of trained tasters; 10 ppm in water", "value": "green"},
      {"measurement": "taste", "setting": "panel of trained tasters; 10 ppm in water", "value": "moderate umami, very weak: bitter, very weak"},
      {"measurement": "aroma", "setting": "panel of trained tasters; 20 ppm in water", "value": "Green, tomato, bell"},
      {"measurement": "taste", "setting": "panel of trained tasters; 20 ppm in water", "value": "strong umami, very weak bitter, weak metallic"},
      {"measurement": "attribute noted by some panelists", "setting": "bench-top tasting panel [1]", "value": "green pepper attribute"},
      {"measurement": "Number of panelists who noted green pepper offnote", "setting": "bench-top tasting panel [1]; of 11 panelists", "value": 2},
      {"measurement": "umami strength ranking", "setting": "bench-top tasting panel [1]", "value": "MSG>Example 1>Blank Noodle Seasoning"},
      {"measurement": "attribute noted by some panelists", "setting": "bench-top tasting panel [2]", "value": "green pepper/chili off-note attribute"},
      {"measurement": "Number of panelists who noted green pepper offnote", "setting": "bench-top tasting panel [2]; of 11 panelists", "value": 3},
      {"measurement": "umami strength ranking", "setting": "bench-top tasting panel [2]", "value": "MSG>Example 1>Blank Chicken Broth"},
      {"measurement": "umami versus control", "setting": "bench-top tasting panel [3]; retorted chicken broth (121° C., 25 minutes, stored two weeks), 10 panelists", "value": "more umami than the control"},
      {"measurement": "off-notes", "setting": "bench-top tasting panel [3]; retorted chicken broth", "value": "pepper off-notes"},
      {"measurement": "Number of panelists who noted green pepper offnote", "setting": "bench-top tasting panel [3]; retorted chicken broth, of 10 panelists", "value": 4},
      {"measurement": "attribute noted by some panelists", "setting": "bench-top tasting panel [4]", "value": "green pepper attribute"},
      {"measurement": "Number of panelists who noted green pepper offnote", "setting": "bench-top tasting panel [4]; of 14 panelists", "value": 4},
      {"measurement": "umami strength ranking", "setting": "bench-top tasting panel [4]", "value": "MSG>Example 1>Blank Cheese Sauce"},
      {"measurement": "umami strength ranking", "setting": "bench-top tasting panel [5]; Example 1 1 ppm (0.0001% by weight)", "value": "MSG>3 ppm Example 1>1 ppm Example 1>Blank Salted Chips"},
      {"measurement": "attribute noted by some panelists", "setting": "bench-top tasting panel [5]; Example 1 containing samples (1 ppm and 3 ppm)", "value": "peppery attribute"},
      {"measurement": "Number of panelists who noted green pepper offnote", "setting": "bench-top tasting panel [5]; Example 1 samples, of 14 panelists", "value": 2},
      {"measurement": "umami strength ranking", "setting": "bench-top tasting panel [5]; [9]", "value": "MSG>3 ppm Example 1>1 ppm Example 1>Blank Salted Chips"}
    ]},
    {"smiles": "N[C@@H](CCC(=O)O)C(=O)[O-].[Na+]", "note": "[MSG, monosodium glutamate, reference compound]", "values": [
      {"measurement": "umami strength ranking", "setting": "bench-top tasting panel [1]", "value": "MSG>Example 1>Blank Noodle Seasoning"},
      {"measurement": "umami strength ranking", "setting": "bench-top tasting panel [2]", "value": "MSG>Example 1>Blank Chicken Broth"},
      {"measurement": "umami strength ranking", "setting": "bench-top tasting panel [4]", "value": "MSG>Example 1>Blank Cheese Sauce"},
      {"measurement": "umami strength ranking", "setting": "bench-top tasting panel [5]; [9]", "value": "MSG>3 ppm Example 1>1 ppm Example 1>Blank Salted Chips"},
      {"measurement": "umami strength ranking", "setting": "bench-top tasting panel [6]", "value": "MSG>3 ppm example 9>3 ppm Example 13>4 ppm Example 3>Blank retorted chicken broth>4 ppm Example 10"},
      {"measurement": "umami strength ranking", "setting": "bench-top tasting panel [7]", "value": "MSG>2 ppm example 9>3 ppm Example 10=4 ppm Example 13>Blank chicken broth>3 ppm Example 3"},
      {"measurement": "umami strength ranking", "setting": "bench-top tasting panel [8]", "value": "10 ppm Example 3>10 ppm Example 9>MSG>10 ppm Example 13>blank>6 ppm Example 10"}
    ]}
  ]
}
